Results on one compound are retold here after patent US10532088B2, “Adoptive cellular therapy using an agonist of retinoic acid receptor-related orphan receptor gamma and related therapeutic methods” (Lycera Corporation, priority 2014, dated 2020).

pEC50: −log10 of the molar value.

The target of assay [1] is T1, RORγ-LBD (Homo sapiens, UniProt P51449).
T1 construct: HIS-tagged RORγ-LBD protein was expressed in SF9 cells using a baculovirus expression system; made in house; host or cells: SF9 insect cells, baculovirus; lysate used
T1 sequence (P51449 269-508 limits assumed): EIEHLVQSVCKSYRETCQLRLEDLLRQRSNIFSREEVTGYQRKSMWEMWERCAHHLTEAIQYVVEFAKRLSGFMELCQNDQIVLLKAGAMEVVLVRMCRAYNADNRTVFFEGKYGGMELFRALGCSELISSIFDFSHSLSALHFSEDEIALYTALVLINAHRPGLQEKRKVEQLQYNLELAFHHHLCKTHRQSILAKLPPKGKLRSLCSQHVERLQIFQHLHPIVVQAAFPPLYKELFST
Put plainly: RORγ-Ligand Binding Domain (LBD) TR-FRET Assay. Type of assay: biochemical. As for the experimental part:
HIS-tagged RORγ-LBD protein was expressed in SF9 cells using a baculovirus expression system. The lysate was diluted in assay buffer (50 mM Tris pH 7.0, 50 mM KCl, 1 mM EDTA, 0.1 mM DTT, 0.01% BSA) to obtain RORγ-LBD final concentration of ˜3 nM in a 384-well assay plate (need to titrate for each batch of protein).
A stock of biotinylated-LXXLL peptide from coactivator SRC1 (Biotin-[…]) was prepared in assay buffer and added to each well (200 nM final concentration). […] RORγ antagonist ursolic acid was also included at a final concentration of 2 μM. Compounds were diluted in DMSO and further diluted in assay buffer with a final DMSO concentration at 1%.
In general terms: In TR-FRET formats the signal depends on donor and acceptor labels being close together.

Assay [2] addresses T2, Gal4-RORγ-LBD (Homo sapiens, UniProt P51449).
T2 construct: expressed in transfected cells
T2 sequence (P51449 269-508 limits assumed): T1 sequence (P51449 269-508 limits assumed)
Put plainly: Gal4-RORγ Luciferase Reporter Assay in HEK-293T Cells. Type of assay: cell-based. How it is done: In the following protocol, HEK-293 cells were transfected with a construct comprising the Gal4 DNA binding domain fused to the ligand binding domain of RORγ (Gal4-RORγ-LBD) in a pcDNA3.1neo plasmid, and also with a reporter construct comprising pGL4.31 Gal4-luciferase (Promega). Control cells were prepared similarly using empty pcDNA3.1neo and pGL4.31 vectors.
Trans-IT reagent (Mirus, 60 μL) at room temperature was added drop wise to OptiMEM (Invitrogen, 1.5 ml). This reagent mixture was mixed by inversion then incubated for 5 to 30 minutes at room temperature. It then was added to a solution of both expression vectors (5 μg each), mixed, and incubated at room temperature for about 20 minutes. HEK-293 cells were harvested from incubation flasks by removing the media, treating with TrypLE Express (Invitrogen), and incubating until the cells detached from the bottom of the flask (approximately 2-5 minutes). […]
The cells were harvested as described above, counted, and centrifuged to obtain the desired number of cells, then re-suspended in complete growth media at 0.75×10^6 cells/mL. […] The luciferase intensity was read on an Envision plate reader (Perkin Elmer). […] The Max Response is the upper plateau in the signal as determined by line-fit using a 4-parameter logistic model in PRISM (GraphPad).
On the technique in general: Reporter assays use an easily measured gene product as a stand-in for the process of interest.

Assay [3] has as its system EG7 tumors. The assay can be described thus: Adoptive transfer of Tc17 cells treated ex vivo with RORγ agonist to mice bearing EG7 tumors. The settings on record: Tc17 cells exposed ex vivo to compound at 10 μM; FIG. 1 Part A. In kind it is in vivo.
Description: EG7 cells (EL4 cells with OVA expression) were grown in RPMI 1640 medium (Invitrogen)/10% heat-inactivated FBS (Hyclone), penicillin-streptomycin, and 50 mM β-mercaptoethanol (Invitrogen); harvested; washed with phosphate-buffered saline (PBS); and then implanted at 1×10^6 cells/mouse in PBS into the flank of mice subcutaneously. Implanted tumor cells grow into visible tumor in about one week. Mice are provided food and water ab libitum throughout the duration of the experiment.
Three to five days after tumor cell transplantation, Tc17 differentiation culture is set up. […]
When a tumor becomes visible, tumor volume is assessed by caliper measurement of the length and width and tumor volume is calculated (0.5×(length×(width)^2). When the tumor becomes visible in most mice (typically 7-10 days after implantation), mice are randomized by tumor volume (tumor volume is <500 mm^3) and divided into three groups. Differentiated Tc17 cells (with or without RORγ agonist) are counted, washed with phosphate buffered saline (PBS), and then the cells are injected into tumor-bearing mice at 5×10^6 cells/mouse intraperitoneally or intravenously using a PBS carrier to deliver the cells. […]
After T cell transfer, tumor volume was assessed every 2 to 3 days. In studies where survival is assessed, mice that are alive and have tumor volume smaller than 3000 mm^3 are considered survivors.

For `C[C@H]1CN(S(=O)(=O)c2cccc(C(F)(F)F)c2)c2cc(COc3c(F)cccc3Cl)ccc2O1` [Compound 1], the pEC50 (in general, the negative decadic logarithm of the EC50, by convention in mol/L) in assay [1] (in presence of 2 μM RORγ antagonist ursolic acid) was more than 6.30; in assay [2] (HEK-293 cells, 2 μM ursolic acid) it was 5.30 to 6.30. In addition, the “TR-FRET Assay Average Max Response” value in assay [1] (upper plateau, signal in absence of ursolic acid or test compound set as 100) is recorded as “**** (a value greater than 200)”. Further, in assay [2] (upper plateau, luciferase signal in absence of ursolic acid or test compound defined at 100), the “Gal4-RORγ Assay Average Max Response” value was “** (a value in the range of greater than 90 to 150)”. Further, the “change in tumor volume over time, p vs. DMSO treated Tc17 cells” value in assay [3] was less than 0.004.
